Laboratory results from patent US20180002371A1 (BAYLOR COLLEGE OF MEDICINE, priority 2014, published 2018).
pIC50: −log10 of the molar value.

Assays:
[1] = test system: LM3-3 cells; assay: Bufalin and gefitinib cotreatment, cell viability; type: cell-based
[2] = test system: LM3-3 cells; assay: Single cell motility assay; type: cell-based
Method: Single Cell Motility Assays. Microtiter 96-well plates pre-coated with collagen V were covered with beads provided by a Cell Motility HCS kit (Thermo Scientific Co. Cat# K0800011). LM3-3 cells (500) were seeded in each bead-coated well. […] The cell track areas (pixels) were counted using Image J. To attain statistical significance, more than 50 cell tracks in each sample were counted.

[3] = molecular target: T1, SRC-3 (Homo sapiens, UniProt Q9Y6Q9); assay: Western blotting of SRC-3 protein in TNBC cells; type: cell-based
T1 construct: endogenous in cells; host or cells: HCC1143, SUM149PT, SUM159PT, MDA-MB-231, MDA-MB-231-LM3-3
T1 sequence (Q9Y6Q9 whole entry): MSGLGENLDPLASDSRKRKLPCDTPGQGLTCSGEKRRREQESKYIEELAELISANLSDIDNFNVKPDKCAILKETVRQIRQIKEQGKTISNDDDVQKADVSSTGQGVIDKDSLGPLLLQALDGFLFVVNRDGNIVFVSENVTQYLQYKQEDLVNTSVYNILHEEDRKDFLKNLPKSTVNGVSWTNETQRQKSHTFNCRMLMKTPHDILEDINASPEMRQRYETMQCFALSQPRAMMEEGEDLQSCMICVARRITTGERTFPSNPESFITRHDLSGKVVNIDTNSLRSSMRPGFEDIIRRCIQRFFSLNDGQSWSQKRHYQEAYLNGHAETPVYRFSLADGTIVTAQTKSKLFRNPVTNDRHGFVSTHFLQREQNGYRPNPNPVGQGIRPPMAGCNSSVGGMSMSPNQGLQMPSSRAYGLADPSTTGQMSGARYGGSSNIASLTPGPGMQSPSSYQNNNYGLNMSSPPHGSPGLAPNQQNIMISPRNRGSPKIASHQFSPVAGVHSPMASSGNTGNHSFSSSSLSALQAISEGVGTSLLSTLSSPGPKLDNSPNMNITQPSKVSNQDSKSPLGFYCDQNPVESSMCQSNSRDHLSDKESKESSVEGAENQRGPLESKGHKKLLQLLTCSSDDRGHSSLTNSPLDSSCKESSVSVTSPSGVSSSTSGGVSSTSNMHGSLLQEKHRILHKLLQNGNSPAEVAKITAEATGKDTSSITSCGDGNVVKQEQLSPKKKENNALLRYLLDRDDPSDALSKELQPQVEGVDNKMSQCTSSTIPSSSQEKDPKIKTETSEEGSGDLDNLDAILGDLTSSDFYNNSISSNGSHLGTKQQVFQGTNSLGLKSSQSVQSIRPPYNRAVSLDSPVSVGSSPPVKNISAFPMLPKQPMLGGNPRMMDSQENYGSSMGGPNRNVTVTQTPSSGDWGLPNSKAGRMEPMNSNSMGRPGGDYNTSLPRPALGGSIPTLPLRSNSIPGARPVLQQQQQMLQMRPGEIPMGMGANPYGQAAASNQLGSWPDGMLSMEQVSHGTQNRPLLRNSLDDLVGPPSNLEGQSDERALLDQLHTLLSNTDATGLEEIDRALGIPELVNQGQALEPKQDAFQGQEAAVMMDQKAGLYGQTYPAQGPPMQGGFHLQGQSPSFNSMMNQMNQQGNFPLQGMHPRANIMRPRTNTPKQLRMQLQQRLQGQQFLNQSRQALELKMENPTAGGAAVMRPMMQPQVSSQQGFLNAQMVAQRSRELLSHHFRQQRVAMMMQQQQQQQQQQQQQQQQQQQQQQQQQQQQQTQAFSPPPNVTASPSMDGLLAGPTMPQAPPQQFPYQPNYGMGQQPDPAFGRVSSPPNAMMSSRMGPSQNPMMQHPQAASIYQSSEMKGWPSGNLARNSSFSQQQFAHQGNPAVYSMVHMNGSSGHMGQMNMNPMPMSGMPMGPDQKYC
Method: Western Blotting Assays. Cell lysate was prepared by adding RIPA buffer (containing 10 mM Tris-Cl pH 8.0, 1 mM EDTA, 0.5 mM EGTA, 1% Triton X-100, 0.1% sodium deoxycholate, 0.1% SDS, 140 mM NaCl, and protease inhibitors) to cells kept on ice. After spinning samples at 16,000 rpm for 15 minutes at 4 ° C., insoluble materials in the collected cell lysate were precipitated and discarded. The total protein concentration was measured using a Bradford protein assay. An equivalent mass of each sample was loaded and electrophoretically separated by 10% SDS-PAGE. Then, proteins on PAGE the gel were transferred to a PVDF membrane. Anti-SRC-3 (Cell Signaling Technology Co. Cat#2126) and anti-actin (Cell Signaling Technology Co. Cat#8457) were used to probe the membranes.

[4] = test system: SUM149PT; assay: Cell cytotoxicity assay (MTT), SUM149PT; type: cell-based; conditions: 72 h, read-out: IC50 cell viability
Method: (§1) Cell Culture. Triple negative breast cancer (TNBC) cell lines HCC1143, SUM149PT, SUM159PT, and MDA-MB-231 were obtained from ATCC. The MDA-MB-231-LM3-3 (LM3-3) cell line was developed from lung metastasis derived from a MDA-MB-231-LM2 xenograft tumor in the mammary fat pad of a SCID mouse.
(§2) The HCC1143 cell line was grown in RPMI-1640 medium, SUM149PT and SUM159PT cell lines were grown in F-12 medium, and MDA-MB-231 cells were grown in DMEM. All culture media were supplemented with 10% fetal bovine serum. All cell lines were grown in a humidified incubator containing 5% CO2 at 37° C. Primary hepatocytes were isolated from an adult male mouse (C57BL) by collagenase perfusion (0.8 mg/mL; Sigma-Aldrich, C5138) through the portal vein and maintained in M199 medium with 10% FBS. The viability of freshly isolated hepatocytes was verified using Trypan blue staining.
(§3) Cell Cytotoxicity Assays. TNBC cells (5000 to 7000 cells per well) were seeded in 96-well plates in medium supplemented with 10% FBS. […] Cell viabilities relative to untreated control cells were plotted using Graphpad Prism.

[5] = test system: MDA-MB-231-LM3-3; assay: Cell cytotoxicity assay (MTT), MDA-MB-231-LM3-3; type: cell-based; conditions: MDA-MB-231-LM3-3, 72 h, read-out: IC50 cell viability
Method: as §1, §2, §3

[6] = test system: HCC1143; assay: Cell cytotoxicity assay (MTT), HCC1143; type: cell-based; conditions: HCC1143, 72 h, read-out: IC50 cell viability
Method: as §1, §2, §3

[7] = test system: MDA-MB-231; assay: Cell cytotoxicity assay (MTT), MDA-MB-231; type: cell-based; conditions: MDA-MB-231, 72 h, read-out: IC50 cell viability
Method: as §1, §2, §3

[8] = molecular target: T1, SRC-3; conditions: receptor interacting domain; cited from earlier work
[9] = test system: cancer cells; conditions: cited from earlier work
[10] = test system: SUM159PT; assay: Cell cytotoxicity assay (MTT), SUM159PT; type: cell-based; conditions: 72 h, read-out: IC50 cell viability
Method: as §1, §2, §3

[11] = Pharmacokinetic studies of bufalin and 3-phospho-bufalin; conditions: p-buf 0.5 mg/kg i.p.
Method: Five quality control (QC) samples at 10 ng/mL, 20 ng/mL, 500 ng/mL, 4000 ng/mL and 8000 ng/mL of plasma were prepared independently of those used for the calibration curves. QC samples were prepared on the day of analysis in the same way as the calibration standards.
Standards, QC samples, and unknown samples were injected into a LC/MS/MS machine for quantitative analysis. […] For i.p. injected P-Buf, the PK trace was fittedto a non-compartmental extravascular model.
P-Buf was dissolved in PBS and administered intraperitoneally at the same dose.

[12] = test system: MDA-MB-231-LM3-3 orthotopic breast tumors; assay: Therapeutic efficacy in an orthotopic TNBC mouse model; type: in vivo; conditions: 0.75 mg/kg three times per week
Method: Therapeutic Efficacy of 3-phospho-bufalin in an Orthotopic TNBC Mouse Model. To establish orthotopic breast tumors, 0.75×10^6 MDA-MB-231-LM3-3 cells were injected into one of the second mammary fat pads of nude mice (Charles River Laboratories, female, 6-7 weeks, n=6/group). When tumors became palpable, generally 14 days after injection, mice were randomized into two groups. The treatment group was then injected with phospho-bufalin subcutaneously (0.75 mg/kg per dose, 3 doses per week) for 3 weeks while the control group received PBS. Tumor lengths and widths were measured three times per week. Tumor sizes were calculated by: (length×width×width)/2.
The therapeutic efficacy of P-Buf was tested in an orthotopic TNBC model. LM3-3 cells (0.75×10^6 cells per mouse) were inoculated into the second pair of mammary gland fat pads of nude mice (female, […]). The mice were randomized into two groups based on luciferase imaging (n=6 per group). Fourteen days after tumor inoculation, the treatment group began receiving P-Buf (0.75 mg/kg) three times per week while the control group received PBS. Tumor volumes were measured three times per week. […] At day 31, the mice were euthanized and tumors were harvested. The tumors derived from PBS treated mice weighed ˜2.4 times more than those of the experimental treatment group (FIGS. 8B and C).

[13] = test system: mouse heart tissues; assay: H-E staining of mouse heart tissues; type: in vivo; conditions: 24 hours after drug administration
[14] = test system: Female ICR mice; assay: Electrocardiogram (EKG) measurements in mice; type: in vivo, mouse
Method: Electrocardiogram (EKG) Measurements. […] Non-invasive EKG recordings were made using the ECGenie system (Mouse Specifics) at several subsequent time points. […] Data acquisition was performed using the program LabChart 6 (ADlnstruments). Individual EKG signals were then evaluated using e-MOUSE physiologic waveform analysis software (Mouse Specifics) as previously described.

[15] = 3-phospho-bufalin 7.5 mg/kg i.p., +10 min post-injection
[16] = 3-phospho-bufalin 7.5 mg/kg i.p., −5 min post-injection (baseline)
[17] = 3-phospho-bufalin 11.25 mg/kg i.p., +5 min post-injection
[18] = 3-phospho-bufalin 11.25 mg/kg i.p., +10 min post-injection
[19] = 3-phospho-bufalin 11.25 mg/kg i.p., +15 min post-injection
[20] = 3-phospho-bufalin 11.25 mg/kg i.p., −5 min post-injection (baseline)

C[C@]12CC[C@H](O)C[C@H]1CC[C@@H]1[C@@H]2CC[C@]2(C)[C@@H](c3ccc(=O)oc3)CC[C@]12O [Bufalin, bufalin]
synergy with gefitinib on cell viability ([1]; 5 or 10 nM bufalin with gefitinib, LM3-3 cells): synergize with gefitinib | toxicity toward LM3-3 cells under motility assay conditions ([2]; 12 hour time point): minimal toxicity | motility of LM3-3 cells ([2]; increasing concentrations of bufalin): decreased with increasing concentrations of bufalin | SRC-3 protein expression ([3]; 100 nM, HCC1143, SUM149PT, SUM159PT, MDA-MB-231, MDA-MB-231-LM3-3): downregulate SRC-3 protein expression | SRC-3 protein level, dose dependence ([3]; MDA-MB-231-LM3-3): downregulated SRC-3 in MDA-MB-231-LM3-3 in a dose-dependent manner | pIC50 [4]: > 7.70 | pIC50 [5]: > 7.70 | pIC50 [6]: 7.14 | pIC50 [7]: > 7.70 | binding to SRC-3 [8]: directly binds to SRC-3 in its receptor interacting domain | IC50 values [9]: low nM range | pIC50 [10]: > 7.70

C[C@]12CC[C@H](OP(=O)(O)O)C[C@H]1CC[C@@H]1[C@@H]2CC[C@]2(C)[C@@H](c3ccc(=O)oc3)CC[C@]12O [3-Phospho-Bufalin, 3-Phospho-bufalin]
AUCInf ([11]; mice): 0.046 ± 0.018 µM·h | AUClast/D ([11]; mice): 0.075 ± 0.044 µM·kg·h/mg | conversion to parent bufalin in vivo ([11]; free bufalin detected in plasma): can be converted to parent bufalin in vivo | tumor weight, PBS treated mice relative to treatment group ([12]; day 31): ~2.4 times | TNBC tumor growth (tumor volume) ([12]; nude mice, LM3-3 tumors): can significantly inhibit TNBC tumor growth | histological examination of cardiomyocytes [13]: little damage to cardiomyocytes | changes in EKG parameters ([14]; 7.5 mg/kg and 11.25 mg/kg i.p.): no significant changes in EKG parameters were observed | HR [14, 15]: 788.7 ± 1.2 BPM | QRS [14, 15]: 11.0 ± 0.1 ms | QT [14, 15]: 38.2 ± 0.9 ms | QTc [14, 15]: 43.8 ± 1.0 ms | RR [14, 15]: 76.1 ± 0.1 ms | ST [14, 15]: 27.6 ± 0.9 ms | HR [14, 16]: 754.7 ± 6.6 BPM | QRS [14, 16]: 10.6 ± 0.1 ms | QT [14, 16]: 40.2 ± 0.6 ms | QTc [14, 16]: 45.0 ± 0.5 ms | RR [14, 16]: 79.6 ± 0.7 ms | ST [14, 16]: 30.1 ± 0.7 ms | HR [14, 17]: 779.7 ± 1.5 BPM | QRS [14, 17]: 10.9 ± 0.1 ms | QT [14, 17]: 37.1 ± 0.3 ms | QTc [14, 17]: 42.3 ± 0.4 ms | RR [14, 17]: 77.0 ± 0.1 ms | ST [14, 17]: 26.7 ± 0.4 ms | HR [14, 18]: 761.3 ± 7.5 BPM | QRS [14, 18]: 11.1 ± 0.2 ms | QT [14, 18]: 38.1 ± 0.6 ms | QTc [14, 18]: 43.0 ± 0.6 ms | RR [14, 18]: 78.8 ± 0.8 ms | ST [14, 18]: 26.6 ± 0.5 ms | HR [14, 19]: 755.0 ± 1.0 BPM | QRS [14, 19]: 11.5 ± 0.1 ms | QT [14, 19]: 39.1 ± 0.9 ms | QTc [14, 19]: 43.9 ± 0.9 ms | RR [14, 19]: 79.5 ± 0.1 ms | ST [14, 19]: 28.1 ± 0.8 ms | HR [14, 20]: 798.0 ± 12.8 BPM | QRS [14, 20]: 10.6 ± 0.3 ms | QT [14, 20]: 39.1 ± 2.4 ms | QTc [14, 20]: 45.1 ± 2.9 ms | RR [14, 20]: 75.8 ± 0.2 ms | ST [14, 20]: 29.0 ± 2.2 ms

COc1cc2ncnc(Nc3ccc(F)c(Cl)c3)c2cc1OCCCN1CCOCC1 [gefitinib]
toxicity in LM3-3 cells ([1]; gefitinib alone, up to 20 μM): minimal toxicity
